The record followed here is PubChem BioAssay AID192 (DTP/NCI, 2004).

Where “and” joins values, the source holds several entries; their conditions need not be identical. Equal values may be shown once. Toxic doses and inconclusive results are not listed.

This test deals with BDF1 mice, B16 melanoma ip, median survival T/C. The experiment in a line: NCI In Vivo Anticancer Drug Screen. Data for tumor model B16 Melanoma (intraperitoneal) in B6D2F1 (BDF1) mice. The following applies: endpoint: median survival time, higher = longer survival. In short, it runs like this:
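Antitumor activity is assessed in mice bearing a transplanted tumor, with survival or tumor size compared against vehicle-dosed controls and expressed as T/C.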

[1] abbreviates: dose: 100.0 mg/kg/injection, schedule: Q01DX009 (ip), vehicle: Klucel (hydroxypropylcellulose) (HPC).
Setting [2] is: dose: 200.0 mg/kg/injection, schedule: Q01DX009 (ip), vehicle: Klucel (hydroxypropylcellulose) (HPC).
The mark [3] stands for this setting: dose: 400.0 mg/kg/injection, schedule: Q01DX009 (ip), vehicle: Klucel (hydroxypropylcellulose) (HPC).
Where [4] appears, read: dose: 12.5 mg/kg/injection, schedule: Q01DX009 (ip), vehicle: Klucel (hydroxypropylcellulose) (HPC).
The mark [5] stands for this setting: dose: 25.0 mg/kg/injection, schedule: Q01DX009 (ip), vehicle: Klucel (hydroxypropylcellulose) (HPC).
Setting [6] is: dose: 50.0 mg/kg/injection, schedule: Q01DX009 (ip), vehicle: Klucel (hydroxypropylcellulose) (HPC).
Setting [7] is: dose: 50.0 mg/kg/injection, schedule: Q01DX009 (ip), vehicle: saline with Tween-80.
Where [8] appears, read: dose: 100.0 mg/kg/injection, schedule: Q01DX009 (ip), vehicle: saline with Tween-80.
[9] abbreviates: dose: 25.0 mg/kg/injection, schedule: Q01DX009 (ip), vehicle: saline.
The mark [10] stands for this setting: dose: 200.0 mg/kg/injection, schedule: Q01DX009 (ip), vehicle: saline with Tween-80.
[11] abbreviates: dose: 25.0 mg/kg/injection, schedule: Q01DX009 (ip), vehicle: saline with Tween-80.
The mark [12] stands for this setting: dose: 3.12 mg/kg/injection, schedule: Q01DX009 (ip), vehicle: saline.
[13] abbreviates: dose: 6.25 mg/kg/injection, schedule: Q01DX009 (ip), vehicle: saline.
The mark [14] stands for this setting: dose: 12.5 mg/kg/injection, schedule: Q01DX009 (ip), vehicle: saline.

For the compound `CCOC(=O)C(Cc1ccc(Cl)cc1)(Cc1ccc(Cl)cc1)C(=O)OCC`, the T/C reads like this: under setting [1], 106 % of control; under setting [2], 100 % of control; under setting [3], 93 % of control.

With `Cc1cc(=O)n(C)c2ccccc12`, the T/C is, setting by setting: under setting [4], 90 % of control; under setting [5], 90 % of control; under setting [6], 90 % of control; (dose: 50.0 mg/kg/injection, schedule: Q04DX003 (ip), vehicle: Klucel (hydroxypropylcellulose) (HPC)) 107 % of control; under setting [1], 90 % of control; (dose: 100.0 mg/kg/injection, schedule: Q04DX003 (ip), vehicle: Klucel (hydroxypropylcellulose) (HPC)) 102 % of control. Also, the T/C (dose: 200.0 mg/kg/injection, schedule: Q04DX003 (ip), vehicle: Klucel (hydroxypropylcellulose) (HPC)) is 102 % of control.

For the compound `CN(C)c1ccc(C=C2c3ccccc3-c3ccccc32)cc1`, the T/C is 106 % of control under setting [1], 103 % of control under setting [2] and 106 % of control under setting [3].

As to `O=C(NC(Cc1ccccc1)C(=O)O)c1ccccc1` (stereo unspecified), the T/C was 90 % of control under setting [7] and 96 % of control under setting [8].

In the case of `NC(N)=N/N=C(/c1ccccc1)c1ccc(F)cc1`, the T/C by setting is: (dose: 20.0 mg/kg/injection, schedule: Q01DX009 (ip), vehicle: saline) 110 % of control; (dose: 40.0 mg/kg/injection, schedule: Q01DX009 (ip), vehicle: saline) 115 % of control; (dose: 80.0 mg/kg/injection, schedule: Q01DX009 (ip), vehicle: saline) 102 % of control.

On to `COc1c(O)c2c(c3cc(C(=O)N4CCc5c4c(O)c(OC)c4[nH]c(C(=O)N6CC7CC78C6=CC(=O)c6[nH]cc(C)c68)cc54)[nH]c13)CCN2C(N)=O` (stereo unspecified), for which the T/C (dose: 10.0 micrograms/kg/injection, schedule: Q01DX009 (ip), vehicle: other) was 181 % of control.

`C=C1C(=O)OC2/C=C(\C)CC/C=C(/C=O)C(OC(=O)C(C)C)C(O)C12` (stereo unspecified): the T/C is, setting by setting: (dose: 1.0 mg/kg/injection, schedule: Q01DX009 (ip), vehicle: saline with Tween-80) 97 % of control; (dose: 2.0 mg/kg/injection, schedule: Q01DX009 (ip), vehicle: saline with Tween-80) 89 % of control and 97 % of control; (dose: 4.0 mg/kg/injection, schedule: Q01DX009 (ip), vehicle: saline with Tween-80) 100 % of control and 103 % of control; (dose: 8.0 mg/kg/injection, schedule: Q01DX009 (ip), vehicle: saline with Tween-80) 100 % of control.

For the compound `CCCCC(CC)CCC(O)CCC(CC)CC` (stereo unspecified), the T/C reads like this: under setting [1], 90 % of control; under setting [3], 87 % of control.

In the case of `O=C(O)CC[S-].[Ag+]`, the T/C by setting is: under setting [9], 99 % of control; (dose: 50.0 mg/kg/injection, schedule: Q01DX009 (ip), vehicle: saline) 111 % of control; (dose: 100.0 mg/kg/injection, schedule: Q01DX009 (ip), vehicle: saline) 97 % of control.

Take `COc1cccc2c1C(=O)c1c(O)c3c(c(O)c1C2=O)CC(O)(/C(C)=N/NC(=O)CCC(=O)N/N=C(\C)C1(O)Cc2c(O)c4c(c(O)c2C(OC2CC(N)C(O)C(C)O2)C1)C(=O)c1c(OC)cccc1C4=O)CC3OC1CC(N)C(O)C(C)O1` (stereo unspecified): the T/C (dose: 4.0 mg/kg/injection, schedule: Q01DX001 (ip), vehicle: water) is 163 % of control; the T/C (dose: 8.0 mg/kg/injection, schedule: Q01DX001 (ip), vehicle: water) was 165 % of control and 168 % of control and 172 % of control; the T/C (dose: 16.0 mg/kg/injection, schedule: Q01DX001 (ip), vehicle: water) was 189 % of control and 292 % of control; the T/C (dose: 32.0 mg/kg/injection, schedule: Q01DX001 (ip), vehicle: water) was 123 % of control and 293 % of control and 313 % of control; the T/C (dose: 64.0 mg/kg/injection, schedule: Q01DX001 (ip), vehicle: water) was 315 % of control.

`O=C(Nc1ccc(F)cc1)NC1CCCCC1`: the T/C under setting [1] is 87 % of control and the T/C under setting [2] is 100 % of control.

With `CC(NC(=O)CN(C)C(=O)OCc1ccccc1)C(=O)O` (stereo unspecified), the T/C reads like this: under setting [7], 99 % of control; under setting [8], 98 % of control; under setting [10], 97 % of control.

`CC(=O)Nc1ccn(C2OC(CO)C(O)C2O)c(=O)n1` (stereo unspecified): the T/C was 88 % of control under setting [11], 97 % of control under setting [7] and 92 % of control under setting [10].

As for `COC(=O)C1C(O)C(C)C(O)C(C)/C=C\C=C(C)C(=O)Nc2c(C)c(OC(C)=O)c3c(c2O)C(=O)C(C)=C2OCOC(=C23)C(C)=CC(C)(O)C(O)C(C)C1O` (stereo unspecified), the T/C reads like this: under setting [4], 112 % of control; under setting [5], 100 % of control; (dose: 25.0 mg/kg/injection, schedule: Q01DX009 (ip), vehicle: carboxymethylcellulose (CMC)) 107 % of control; under setting [6], 102 % of control; (dose: 50.0 mg/kg/injection, schedule: Q01DX009 (ip), vehicle: carboxymethylcellulose (CMC)) 103 % of control; (dose: 100.0 mg/kg/injection, schedule: Q01DX009 (ip), vehicle: carboxymethylcellulose (CMC)) 102 % of control. In addition, the T/C (dose: 200.0 mg/kg/injection, schedule: Q01DX009 (ip), vehicle: carboxymethylcellulose (CMC)) is 96 % of control.

For `CC[C@@]1(O)C[C@H](OC2CC(N(C)C)C(OC3CC(O)C(OC4CCC(=O)C(C)O4)C(C)O3)C(C)O2)c2c(cc3c(c2O)C(=O)c2c(O)ccc(O)c2C3=O)[C@H]1C(=O)OC` (stereo partly specified), the T/C (dose: 0.25 mg/kg/injection, schedule: Q01DX009 (ip), vehicle: saline) was 119 % of control; the T/C (dose: 0.25 mg/kg/injection, schedule: Q01DX009 (ip), vehicle: water) is 110 % of control; the T/C (dose: 0.37 mg/kg/injection, schedule: Q01DX009 (ip), vehicle: saline) is 102 % of control; the T/C (dose: 0.5 mg/kg/injection, schedule: Q01DX009 (ip), vehicle: saline) was 114 % of control; the T/C (dose: 0.5 mg/kg/injection, schedule: Q01DX009 (ip), vehicle: water) is 120 % of control; the T/C (dose: 0.75 mg/kg/injection, schedule: Q01DX009 (ip), vehicle: saline) is 113 % of control. For the same compound, the T/C by setting is: (dose: 0.75 mg/kg/injection, schedule: Q04DX003 (ip), vehicle: saline) 91 % of control; (dose: 1.0 mg/kg/injection, schedule: Q01DX009 (ip), vehicle: saline) 157 % of control and 168 % of control; (dose: 1.5 mg/kg/injection, schedule: Q01DX009 (ip), vehicle: saline) 150 % of control; (dose: 1.5 mg/kg/injection, schedule: Q04DX003 (ip), vehicle: saline) 91 % of control and 106 % of control; (dose: 2.0 mg/kg/injection, schedule: Q01DX009 (ip), vehicle: saline) 107 % of control; (dose: 3.0 mg/kg/injection, schedule: Q04DX003 (ip), vehicle: saline) 108 % of control and 115 % of control. The T/C by setting is: (dose: 3.6 mg/kg/injection, schedule: Q01DX001 (ip), vehicle: water) 100 % of control and 102 % of control; (dose: 6.0 mg/kg/injection, schedule: Q01DX001 (ip), vehicle: water) 92 % of control and 102 % of control; (dose: 6.0 mg/kg/injection, schedule: Q04DX003 (ip), vehicle: saline) 88 % of control and 97 % of control; (dose: 10.0 mg/kg/injection, schedule: Q01DX001 (ip), vehicle: water) 101 % of control and 102 % of control; (dose: 16.7 mg/kg/injection, schedule: Q01DX001 (ip), vehicle: water) 106 % of control.

Consider `CCN(CC)C(=S)SC(=S)N(CC)CC`, for which the T/C is 96 % of control under setting [8]; 103 % of control under setting [10]; 93 % of control (dose: 400.0 mg/kg/injection, schedule: Q01DX009 (ip), vehicle: saline with Tween-80).

Turning to `CCOC1CCC2C(CCC(/C=C/c3ccc(O)c4ncccc34)N2C)C1` (stereo unspecified), under setting [11], the T/C is 111 % of control.

For `CN(Cc1cnc2nc(N)nc(N)c2n1)c1c(Cl)cc(C(=O)NC(CCC(=O)O)C(=O)O)cc1Br` (stereo unspecified), the T/C runs as follows: (dose: 25.0 mg/kg/injection, schedule: Q01DX011 (ip), vehicle: saline) 101 % of control; (dose: 50.0 mg/kg/injection, schedule: Q01DX011 (ip), vehicle: saline) 105 % of control.

On to `Cc1oc2c(c(=O)c1C)C1CCC(C2)N1C` (stereo unspecified), for which the T/C reads like this: under setting [5], 103 % of control; under setting [6], 103 % of control; under setting [1], 97 % of control.

Take `CN1CCC(OC2c3ccccc3CCc3ccccc32)CC1`: the T/C by setting is: under setting [12], 100 % of control; under setting [13], 104 % of control; under setting [14], 104 % of control; under setting [9], 97 % of control.

As to `O=NNc1ccccn1`, the T/C reads like this: under setting [12], 116 % of control; under setting [13], 119 % of control; under setting [14], 156 % of control and 165 % of control.
